# Laboratory results as given in patent publication US5561126A, “4-oxa-1-azabicyclo [3,2,0] heptan-7-one derivatives as antitumor agents” (Taiho Pharmaceutical Co., Ltd., priority 1992, dated 1996).
# Key:
# KB cells = test: In Vitro KB Cell Cytotoxicity Assay (crystal violet); format: cell-based; conditions: Homo sapiens, 72 h, read-out: Cytotoxicity TD50 KB
# Experimental: KB cells were cultivated in Eagles minimum essential medium supplemented with 10% calf serum and incubated at 37° C. in a humidified 5% CO2 atmosphere to prepare a cell stock. Cells were counted using a neubauer hemocytometer and seeded in 96 well plates at 100 μl of 3×10^4 cells/ml and cultured for one day. […] Control wells were identical except that test compound was absent. These were cultured for three days. […] Then stained with 100 μl of 0.05% crystal violet for 15 minutes, washed with water and dried. The wells were eluted with 100 μl of 0.05M NaH2 PO4 /ethanol (1:1 v/v) and read at OD540 on a multiscan spectrophotometer. TD50 values were calculated using the following formula.
# L1210 cells = test: cells; format: cell-based; conditions: Mus musculus, L1210, 72 h, read-out: Cytotoxicity TD50 L1210
# Experimental: In vitro L1210 cell cytotoxicity assay was done by the method of microculture tetrazolium assay (Alley et al., Cancer Research, 48, 589-601 (1988)). L1210 cells were cultivated in RPMI 1640 medium supplemented with 10% fetal calf serum and […] of 2-mercaptoethanol at 37° C. in humidified 5% CO2 atmosphere to prepare a cell stock. Cells were counted using neubauer hemocytometer and seed in 96 well plates at 100 μl of 0.5×10^4 cells per ml. The test compounds were diluted and 100 μl of the solution was added in triplicate wells to give the final concentration of 10, 5, 1, 0.5 and 0.1 μg/ml. Control wells were identical except that the test compound was absent. These were cultured for three days. Results were assayed using the microculture tetrazolium assay briefly. 50 μl of MTT formazoan working solution (1:5 v/v in culture medium) was added to each well and cultures were incubated at 37° C. for 4 hrs. Culture plates were centrifuged at low speed for 5 minutes. All but 10-20 μl of culture medium supernatant was removed by slow aspiration and replaced by 50 μl of DMSO. The formazoan was dissolved by shaking on a mechanical shaker and read at OD540 on a multiscan spectrophotometer. TD50 values were calculated using the formula: [formula] to give interpolative values between two dilutions.
# Sarcoma 180 = test: In Vivo Antitumor Activity Against Sarcoma 180; conditions: for Mortality in 12 days: i.p., days 1, 5 and 9
# Experimental: Sarcoma 180, 5×10^6 cells were inoculated by S.C. to male ICR mice (6 weeks old) on day 0. Drugs were administered on days 1, 5 and 9. Mice were killed and tumor weight was measured on day 12 after transplantation. The percentage inhibition of tumor growth was calculated from the mean tumor weight of the treated group compared with that of the control group. Number of mice used in each group was between 6 to 10.
# [1] = Mus musculus, Sarcoma-180, ip, 288 h, read-out: % Inhibition of tumor growth
SMILES,CC50 (KB cells) [µg/mL],also measured
"CCCC(=O)OC[C@H]1CN2C(=O)C[C@@H]2O1 (racemic) [compound 5, (3RS, 5SR)-3-Butyryloxymethyl-4-oxa-1-azabicyclo [3,2,0]heptan-7-one]",0.3,CC50 (L1210 cells): 0.45 µg/mL
O=C(OC[C@H]1CN2C(=O)C[C@@H]2O1)c1ccc(O)c(O)c1 (relative stereo) [compound 22],2.5,
"CC(C)C(=O)OC[C@H]1CN2C(=O)C[C@@H]2O1 (racemic) [compound 9, (3RS, 5SR)-3-(2-Methylpropionyloxymethyl)-4-oxa-1-azabicyclo [3,2,0]heptan-7-one]",0.4,
"O=C(O)COc1ccc(C(=O)OC[C@H]2CN3C(=O)C[C@@H]3O2)cc1 (relative stereo) [compound 23, Sodium (3RS, 5SR)-4-(4-oxa-1-azabicyclo [3,2,0]heptan-7-one-3-methyloxycarbonyl)phenoxyacetate]",8.7,Mortality in 12 days (Sarcoma 180; 50 mg/kg/day): 0/6; inhibition in vivo at 50 mg/kg (Sarcoma 180; [1]): 23.7%
"CC=CC=CC(=O)OC[C@H]1CN2C(=O)C[C@@H]2O1 (relative stereo) [compound 14, (3RS, 5SR)-3-(2,4-Hexadienoyloxyymethyl)-4-oxa-1-azabicyclo [3,2,0]heptan-7-one]",0.3,CC50 (L1210 cells): 0.65 µg/mL
Cc1cc(C)c(C(=O)OC[C@H]2CN3C(=O)C[C@@H]3O2)c(C)c1 (relative stereo) [compound 19],2,
"O=C1C[C@@H]2O[C@@H](CSCc3ccccc3)CN12 (racemic) [compound 41, (3RS,5SR)-3-Benzylthiomethyl-4-oxa-1-azabicyclo[3,2,0]heptan-7-one]",5,Mortality in 12 days (Sarcoma 180; 6.25 mg/kg/day): 0/6; inhibition in vivo at 6.25 mg/kg (Sarcoma 180; [1]): 17.1%
"O=C(O)C1CCCCC1C(=O)OC[C@H]1CN2C(=O)C[C@@H]2O1 (relative stereo) [compound 24, Sodium (3RS, 5SR)-2-(4-oxa-1-azabicyclo [3,2,0]heptan-7-one-3-methyloxycarbonyl)cyclohexyl-2-carboxylate]",0.7,
"Cc1ccc(S(=O)(=O)C[C@H]2CN3C(=O)C[C@@H]3O2)cc1 (racemic) [compound 51, (3RS, 5SR)-3-(4-Methylbenzenesulfonyl)methyl-4-oxa-1-azabicyclo[3,2,0]heptan-7-one]",1,
COc1ccc(COC[C@H]2CN3C(=O)C[C@@H]3O2)cc1OC [39A],0.56,
"O=C1C[C@@H]2O[C@@H](CS(=O)(=O)c3ccccc3)CN12 (racemic) [compound 46, (3RS, 5SR)-3-Phenylsulfonylmethyl-4-oxa-1-azabicyclo[3,2,0]heptan-7-one]",2,
"O=C1C[C@@H]2O[C@@H](CS(=O)(=O)Cc3ccccc3)CN12 (racemic) [compound 43, (3RS, 5SR)-3-Benzylsulfonylmethyl-4-oxa-1-azabicyclo[3,2,0]heptan-7-one]",0.5,Mortality in 12 days (Sarcoma 180; 12.5 mg/kg/day): 0/6; inhibition in vivo at 12.5 mg/kg (Sarcoma 180; [1]): 19.5%
"CC(C)CC(=O)OC[C@H]1CN2C(=O)C[C@@H]2O1 (relative stereo) [compound 10, (3RS, 5SR)-3-Methylbutyryloxymethyl-4-oxa-1-azabicyclo [3,2,0]heptan-7-one]",0.25,
"O=C(CC(O)C(=O)OC[C@H]1CN2C(=O)C[C@@H]2O1)OC[C@H]1CN2C(=O)C[C@@H]2O1 (mixture of isomers) [compound 28, Bis [(3RS, 5SR)-(4-oxa-1-azabicyclo[3,2,0]heptan-7-one-3-yl)-methyl]-2-hydroxysuccinate]",0.3,
"O=C1C[C@@H]2O[C@@H](CSc3ccccc3)CN12 (racemic) [compound 44, (3RS, 5SR)-3-Phenylthiomethyl-4-oxa-1-azabicyclo[3,2,0]heptan-7-one]",3,
"C#CCCC(=O)OC[C@H]1CN2C(=O)C[C@@H]2O1 (racemic) [compound 17, (3RS, 5SR)-3-(4-Pentynoyloxymethyl)-4-oxa-1-azabicyclo [3,2,0]heptan-7-one]",0.27,
"O=C(OC[C@H]1CN2C(=O)C[C@@H]2O1)C(O)C(O)C(=O)OC[C@H]1CN2C(=O)C[C@@H]2O1 (mixture of isomers) [compound 29, Bis [(3RS, 5SR)-(4-oxa-1-azabicyclo[3,2,0]heptan-7-one-3-yl)-methyl]-2,3-dihydroxysuccinate]",0.3,

SMILES,CC50 (KB cells) [µg/mL],also measured
"O=C(OC[C@H]1CN2C(=O)C[C@@H]2O1)c1ccc(F)cc1 (racemic) [compound 31, (3RS, 5SR)-3-(4-Fluorobenzoyloxymethyl)-4-oxa-1-azabicyclo [3,2,0]heptan-7-one]",0.4,Mortality in 12 days (Sarcoma 180; 12.5 mg/kg/day): 0/7; Mortality in 12 days (Sarcoma 180; 25 mg/kg/day): 0/7; inhibition in vivo at 12.5 mg/kg (Sarcoma 180; [1]): 53.2%; inhibition in vivo at 25 mg/kg (Sarcoma 180; [1]): 69.4%
"Nc1ccc(C(=O)OC[C@H]2CN3C(=O)C[C@@H]3O2)cc1 (racemic) [compound 34, (3RS, 5SR)-3-(4-Aminobenzoyloxymethyl)-4-oxa-1-azabicyclo [3,2,0]heptan-7-one]",0.4,
"COc1cc(C(=O)OC[C@H]2CN3C(=O)C[C@@H]3O2)cc(OC)c1O (racemic) [compound 35, (3RS, 5SR)-3-(4-Hydroxy-3,5-dimethoxybenzoyloxymethyl)-4-oxa-1-azabicyclo [3,2,0]heptan-7-one]",0.8,
CCCCC(C)C(=O)OC[C@H]1CN2C(=O)C[C@@H]2O1 (relative stereo) [compound 12],0.4,
"O=C(/C=C\C(=O)OC[C@H]1CN2C(=O)C[C@@H]2O1)OC[C@H]1CN2C(=O)C[C@@H]2O1 (relative stereo) [compound 30, Bis [(3RS, 5SR)-(4-oxa-1-azabicyclo[3,2,0]heptan-7-one-3-yl)-methyl]maleate]",0.05,Mortality in 12 days (Sarcoma 180; 12.5 mg/kg/day): 0/6; Mortality in 12 days (Sarcoma 180; 25 mg/kg/day): 0/6; inhibition in vivo at 12.5 mg/kg (Sarcoma 180; [1]): 34%; inhibition in vivo at 25 mg/kg (Sarcoma 180; [1]): 76.9%
"O=C(OC[C@H]1CN2C(=O)C[C@@H]2O1)c1cc(F)c(F)cc1F (racemic) [compound 32, (3RS, 5SR)-3-(2,4,5-Trifluorobenzoyloxymethyl)-4-oxa-1-azabicyclo[3,2,0]heptan-7-one]",0.3,
O=C(OC[C@H]1CN2C(=O)C[C@@H]2O1)c1ccc(O)cc1 (relative stereo) [compound 21],2.2,Mortality in 12 days (Sarcoma 180; 50 mg/kg/day): 0/6; inhibition in vivo at 50 mg/kg (Sarcoma 180; [1]): 48.3%
"O=C(OC[C@H]1CN2C(=O)C[C@@H]2O1)c1ccccc1 (racemic) [compound 18, (3RS, 5SR)-3-Benzoyloxymethyl-4-oxa-1-azabicyclo[3,2,0]heptan-7-one]",5,
"O=C(O)/C=C/C(=O)OC[C@H]1CN2C(=O)C[C@@H]2O1 (relative stereo) [compound 27, Sodium [(3RS, 5SR)-(4-oxa-1-azabicyclo[3,2,0]heptan-7-one-3-yl)methyl]fumarate]",2.4,
"O=C([O-])c1ccccc1C(=O)OC[C@H]1CN2C(=O)C[C@@H]2O1.[Na+] (racemic) [compound 25, Sodium (3RS, 5SR)-2-[(4-oxa-1-azabicyclo [3,2,0]heptan-7-one-3-yl)methyloxycarbonyl]benzoate]",1.5,Mortality in 12 days (Sarcoma 180; 100 mg/kg/day): 2/6; inhibition in vivo at 100 mg/kg (Sarcoma 180; [1]): 44.1%
CC(C)CCC(=O)OC[C@H]1CN2C(=O)C[C@@H]2O1 (relative stereo) [compound 11],0.4,
O=C(O)CCC(=O)OC[C@H]1CN2C(=O)C[C@@H]2O1 (relative stereo) [compound 26],9.8,
"N#Cc1ccc(C(=O)OC[C@H]2CN3C(=O)C[C@@H]3O2)cc1 (relative stereo) [compound 33, (3RS, 5SR)-3-(4-Cyanobenzoyloxyymethyl)-4-oxa-1-azabicyclo [3,2,0]heptan-7-one]",0.3,
COc1ccc(C(=O)OC[C@H]2CN3C(=O)C[C@@H]3O2)cc1 (relative stereo) [compound 20],0.6,Mortality in 12 days (Sarcoma 180; 3.13 mg/kg/day): 0/7; Mortality in 12 days (Sarcoma 180; 6.25 mg/kg/day): 0/7; Mortality in 12 days (Sarcoma 180; 12.5 mg/kg/day): 0/7; Mortality in 12 days (Sarcoma 180; 25 mg/kg/day): 0/7; inhibition in vivo at 3.13 mg/kg (Sarcoma 180; [1]): 60%; inhibition in vivo at 6.25 mg/kg (Sarcoma 180; [1]): 68.6%; inhibition in vivo at 12.5 mg/kg (Sarcoma 180; [1]): 59.1%; inhibition in vivo at 25 mg/kg (Sarcoma 180; [1]): 74.1%
"COc1ccc(COC[C@H]2CN3C(=O)C[C@H]3O2)cc1OC [39B, (3R,5R)-3-(3,4-Dimethoxybenzyloxymethyl)-4-oxa-1-azabicyclo[3,2,0] heptan-7-one]",0.57,
"O=C1C[C@@H]2O[C@H](CCO)CN12 (racemic) [compound 50, (3RS, 5SR)-3-Hydroxyethyl-4-oxa-1-azabicyclo[3,2,0]heptan-7-one]",0.7,Mortality in 12 days (Sarcoma 180; 50 mg/kg/day): 0/6; inhibition in vivo at 50 mg/kg (Sarcoma 180; [1]): 65.3%
